Measured values from ChEMBL document CHEMBL4411316, “Design, synthesis and identification of novel coumaperine derivatives for inhibition of human 5-LOX: Antioxidant, pseudoperoxidase and docking studies” (Bioorg Med Chem, 2019).
pIC50: −log10 of the molar value. Activity calls are given as the source filed them. No cut-off for these calls is given here.

How the values were obtained:
[1] = target: T1, Polyunsaturated fatty acid 5-lipoxygenase (Homo sapiens) (UniProt P09917); assay: Inhibition of recombinant human 5-LOX expressed in Escherichia coli at 20 uM using arachidonic acid as substrate by UV-vis spectrophotometric method relative to control
T1 sequence (whole entry): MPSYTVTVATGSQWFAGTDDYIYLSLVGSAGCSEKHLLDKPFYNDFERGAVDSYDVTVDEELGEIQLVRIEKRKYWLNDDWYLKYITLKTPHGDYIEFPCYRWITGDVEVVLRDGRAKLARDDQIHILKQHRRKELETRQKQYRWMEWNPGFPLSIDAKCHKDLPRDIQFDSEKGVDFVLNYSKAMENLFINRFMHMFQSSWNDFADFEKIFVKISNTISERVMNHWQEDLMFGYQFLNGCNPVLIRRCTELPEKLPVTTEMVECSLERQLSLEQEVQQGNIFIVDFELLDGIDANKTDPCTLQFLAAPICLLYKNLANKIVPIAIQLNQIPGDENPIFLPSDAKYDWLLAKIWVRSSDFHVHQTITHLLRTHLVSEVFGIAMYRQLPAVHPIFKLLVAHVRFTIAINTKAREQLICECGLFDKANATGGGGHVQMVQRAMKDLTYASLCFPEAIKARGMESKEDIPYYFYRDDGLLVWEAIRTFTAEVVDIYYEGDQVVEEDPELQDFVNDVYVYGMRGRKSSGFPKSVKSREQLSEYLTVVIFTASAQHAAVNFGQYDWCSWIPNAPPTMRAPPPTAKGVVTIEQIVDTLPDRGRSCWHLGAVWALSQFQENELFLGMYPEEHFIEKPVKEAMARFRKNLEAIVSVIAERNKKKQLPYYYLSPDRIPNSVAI

[2] = target: T2, Polyunsaturated fatty acid 5-lipoxygenase (Homo sapiens, UniProt P09917); assay: Inhibition of recombinant human 5-LOX expressed in Escherichia coli using arachidonic acid as substrate by UV-vis spectrophotometric method
T2 sequence (P09917 whole entry): T1 sequence (whole entry)

[3] = Antioxidant activity assessed as DPPH radical scavenging activity at 20 uM incubated for 30 mins under dark condition relative to control; assay type: functional
[4] = target: T1, Polyunsaturated fatty acid 5-lipoxygenase (Homo sapiens); assay: Inhibition of recombinant human 5-LOX pseudoperoxidase activity expressed in Escherichia coli BL21 assessed as compound redox activity by measuring reduction in absorption at 10 uM using 13(S)-HpODE as substrate by UV-vis spectrophotometric method relative to control; set-up: scale not given: the % may be the effect or the level left
[5] = target: T2, Polyunsaturated fatty acid 5-lipoxygenase; assay: Inhibition of human 5-LOX using arachidonic acid as substrate measured after 10 mins by ELISA

Structure (SMILES) | inhibition [1] [%] | further results
CN(C)c1ccc(/C=C/C=C/C(=O)N2CCCCC2)cc1 | 13.4 | 
COc1ccc(/C=C/C=C/C(=O)N2CCCCC2)c(OC)c1OC | 36 | 
O=C(/C=C/C=C/c1ccc(F)cc1)N1CCCCC1 | 48.7 | 
O=C(/C=C/C=C/c1ccc(Cl)cc1)N1CCCCC1 | 14.5 | 
O=C(/C=C/C=C/c1ccc(O)c(O)c1)N1CCCCC1 | 82.8 | pIC50 [2]: 5.68; Activity [3]: 76.8%; Activity [4]: 57.4%
COc1ccc(/C=C/C=C/C(=O)N2CCCCC2)cc1OC | 51.9 | 
COc1cc(OC)c(/C=C/C=C/C(=O)N2CCCCC2)c(OC)c1 | 77.1 | Activity [3]: 3.6%; Activity [4]: inactive
O=C(/C=C/C=C/c1ccccc1)N1CCCCC1 | 36.3 | 
COc1cc(/C=C/C=C/C(=O)N2CCCCC2)cc(OC)c1OC | 66.7 | 
CC(=O)Oc1ccc(/C=C/C=C/C(=O)N2CCCCC2)cc1 | 18.3 | 
O=C(/C=C/c1ccc(O)c(O)c1)N1CCCCC1 | 55.2 | 
COC1=C(OC)C(=O)C(CCCCCCCCCCO)=C(C)C1=O [IDEBENONE] |  | pIC50 [5]: < 5.00
O=C(/C=C/C=C/C=C/c1ccc(O)c(O)c1)N1CCCCC1 | 30.3 | 
O=C(/C=C/C=C/C=C/c1ccc2c(c1)OCO2)N1CCCCC1 | 76 | Activity [3]: 0.9%; Activity [4]: inactive
O=C(/C=C/C=C/c1ccc(O)cc1)N1CCCCC1 | 44.4 | 
O=C1O[C@H]([C@@H](O)CO)C(O)=C1O |  | Activity [3]: 80.1%
COc1cc(/C=C/C=C/C(=O)N2CCCCC2)ccc1O | 55.5 | 
COc1ccc(/C=C/C=C/C(=O)N2CCCCC2)cc1 | 42.6 | 
COc1cc(/C=C/C=C/C(=O)N2CCCCC2)cc(OC)c1 | 64.9 | 
CN(C)c1ccc(/C=C/C=C/C=C/C(=O)N2CCCCC2)cc1 | 27.4 | 
COc1cc(/C=C/C=C/C(=O)N2CCCCC2)cc(OC)c1O | 32.7 | 
COc1cc(/C=C/c2ccc(O)cc2)cc(OC)c1 [PTEROSTILBENE] |  | pIC50 [5]: 5.03
O=C(/C=C/c1ccc2c(c1)OCO2)N1CCCCC1 | 39.9 | 
COc1ccc(/C=C/C=C/C=C/C(=O)N2CCCCC2)cc1 | 1.08 | 
O=C(/C=C/C=C/c1cc(O)c(O)c(O)c1)N1CCCCC1 | 82.5 | pIC50 [2]: 5.64; Activity [3]: 71.3%; Activity [4]: 50.8%
CSc1ccc(/C=C/C=C/C(=O)N2CCCCC2)cc1 | 11.8 | 
O=C(/C=C/C=C/c1ccc2c(c1)OCO2)N1CCCCC1 | 47.5 | 
Oc1cc(O)cc(/C=C/c2ccc(O)cc2O)c1 [OXYRESVERATROL] |  | pIC50 [5]: 4.73
O=C(/C=C/C=C/c1ccc(OC2CCCC2)cc1)N1CCCCC1 | 16.1 | 
